Patent US20060045953A1 (priority 2004, published 2006)

Assays:
human panelists = assay: Umami/savory flavor experiments using human panelists (trained panel, difference from reference); type: in vivo; conditions: savory taste; for Taste Data: concentration of cpd that with 12 mM MSG is as strong as 12 mM MSG + 100 μM IMP: aqueous solution with 12 mM MSG; for Taste Data: concentration of cpd (alone) as strong as 12 mM MSG: without MSG
Description: General Panelist Selection: Basic screening of sensory taste testers: Potential panelists were tested for their abilities to rank and rate intensities of solutions representing the five basic tastes. Panelists ranked and rated intensity of five different concentrations of each of the five following compounds: sucrose (sweet), sodium chloride (salty), citric acid (sour), caffeine (bitter), and monosodium glutamate (savory). In order to be selected for participation in testing, panelists needed to correctly rank and rate samples for intensity, with a reasonable number of errors. […]
Trained Panelist Selection: A trained expert panel was used to further evaluate compounds that had been tested with the preliminary taste test.
Panelists for the trained panel were selected from the larger group of qualifying taste panelists. Panelists were further trained on savory taste by ranking and rating experiments using MSG and IMP combinations. Panelists completed a series of ranking, rating, and difference from reference tests with savory solutions. In ranking and rating experiments, panelists evaluated easy MSG concentrations (0, 6, 18, 36 mM) and more difficult MSG concentrations (3, 6, 12, 18 mM MSG) in water.
Compound testing with Trained Panel: Compounds tested by the trained panel were evaluated in difference from reference experiments. […] Test samples were solutions with varying amounts of MSG, IMP, and the compound. Typically, each session compares the reference sample to numerous test samples. […] Compounds were tested against the reference in samples with and without 12 mM MSG. All samples were presented in 10 ml volumes at room temperature. Two sessions were completed for each compound tested to evaluate panel reproducibility.

[1] = target: T1, hT1R1/hT1R3 umami receptor (Homo sapiens, UniProt Q7RTX0+Q7RTX1); assay: In vitro hT1R1/hT1R3 umami taste receptor activation assay (FLIPR, dose response); type: cell-based; conditions: read-out: EC50 for activation of a hT1R1/hT1R3 umami receptor expressed in an HEK293 cell line
T1 construct: expressed in transfected cells; host or cells: HEK293 derivative stably expressing Gα15, clone I-17, expression induced with mifepristone
T1 sequence (Q7RTX1 21-841): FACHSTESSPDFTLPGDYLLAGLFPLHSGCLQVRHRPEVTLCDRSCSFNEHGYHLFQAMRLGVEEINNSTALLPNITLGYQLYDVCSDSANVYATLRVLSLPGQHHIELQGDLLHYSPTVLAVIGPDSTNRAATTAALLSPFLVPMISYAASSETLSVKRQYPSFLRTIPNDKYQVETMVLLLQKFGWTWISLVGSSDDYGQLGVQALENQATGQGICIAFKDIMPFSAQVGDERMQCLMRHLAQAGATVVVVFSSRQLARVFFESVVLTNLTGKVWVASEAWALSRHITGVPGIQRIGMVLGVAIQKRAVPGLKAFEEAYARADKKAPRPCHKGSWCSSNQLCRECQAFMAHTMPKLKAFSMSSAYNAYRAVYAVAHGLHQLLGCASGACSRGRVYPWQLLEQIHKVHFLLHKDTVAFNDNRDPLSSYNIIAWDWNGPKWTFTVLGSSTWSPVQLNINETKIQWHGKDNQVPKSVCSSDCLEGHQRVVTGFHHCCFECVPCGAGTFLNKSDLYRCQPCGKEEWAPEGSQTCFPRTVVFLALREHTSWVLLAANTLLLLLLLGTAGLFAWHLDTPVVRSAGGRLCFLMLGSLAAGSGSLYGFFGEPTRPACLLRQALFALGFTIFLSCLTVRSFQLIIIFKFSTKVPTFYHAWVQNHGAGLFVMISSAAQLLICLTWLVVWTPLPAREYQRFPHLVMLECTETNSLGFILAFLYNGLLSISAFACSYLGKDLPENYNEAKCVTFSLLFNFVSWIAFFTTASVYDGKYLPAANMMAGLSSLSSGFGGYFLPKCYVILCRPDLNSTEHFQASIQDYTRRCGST
T1 sequence (Q7RTX0 21-852): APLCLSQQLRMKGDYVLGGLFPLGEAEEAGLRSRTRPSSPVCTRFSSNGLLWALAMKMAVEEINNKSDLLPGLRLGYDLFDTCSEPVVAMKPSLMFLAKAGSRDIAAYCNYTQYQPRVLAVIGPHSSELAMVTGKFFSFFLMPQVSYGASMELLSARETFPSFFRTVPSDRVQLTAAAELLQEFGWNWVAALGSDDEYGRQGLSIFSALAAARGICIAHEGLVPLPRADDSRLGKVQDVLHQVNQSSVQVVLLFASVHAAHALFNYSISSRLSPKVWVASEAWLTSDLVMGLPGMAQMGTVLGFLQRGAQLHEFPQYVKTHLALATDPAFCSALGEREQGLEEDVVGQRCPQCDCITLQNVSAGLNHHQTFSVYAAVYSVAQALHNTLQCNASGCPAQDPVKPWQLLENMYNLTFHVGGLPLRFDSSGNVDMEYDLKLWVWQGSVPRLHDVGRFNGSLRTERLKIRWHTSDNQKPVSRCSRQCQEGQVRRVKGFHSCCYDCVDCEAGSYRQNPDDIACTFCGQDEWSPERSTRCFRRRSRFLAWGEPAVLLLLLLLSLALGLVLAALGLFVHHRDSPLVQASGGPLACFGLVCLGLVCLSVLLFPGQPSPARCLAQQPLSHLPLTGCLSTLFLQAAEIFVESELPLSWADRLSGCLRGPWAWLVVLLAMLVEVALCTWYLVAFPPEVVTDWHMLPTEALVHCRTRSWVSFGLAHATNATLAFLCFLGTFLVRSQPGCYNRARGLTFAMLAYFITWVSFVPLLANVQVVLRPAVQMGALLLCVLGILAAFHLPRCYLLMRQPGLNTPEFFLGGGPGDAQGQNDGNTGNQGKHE

SMILES	EC50 [1] [nM]	melting point [°C]	Taste Data: concentration of cpd that with 12 mM MSG is as strong as 12 mM MSG + 100 μM IMP (human panelists)	Taste Data: concentration of cpd (alone) as strong as 12 mM MSG (human panelists)
CCCC(CCC)NC(=O)c1ccc2c(c1)OCO2 [Example 1, N-(heptan-4-yl)benzo[d][1,3]dioxole-5-carboxamide]	200		12 mM MSG + 3 μM cpd as strong as	
COC(=O)[C@@H](CC(C)C)NC(=O)c1ccc2c(c1)OCO2 [Example 6, (R)-methyl 2-(benzo[d][1,3]dioxole-6-carboxamido)-4-methylpentanoate]	340		12 mM MSG + 10 μM cpd as strong as	
COC[C@@H](CC(C)C)NC(=O)c1ccc(C)c(C)c1 [Example 71, (R)-N-(1-methoxy-4-methylpentan-2-yl)-3,4-dimethylbenzamide]	200		12 mM MSG + 3 μM cpd as strong as	
COC(=O)[C@@H](CC(C)C)NC(=O)c1cc(C)c(C)o1 [Example 98, (R)-methyl 2-(2,3-dimethylfuran-5-carboxamido)-4-methylpentanoate]	590		12 mM MSG + 10 μM cpd as strong as	
COC[C@@H](CC(C)C)NC(=O)c1ccc(OC)c(C)c1 [Example 104, 4-Methoxy-N-(1-methoxymethyl-3-methyl-butyl)-3-methyl-benzamide]	240		12 mM MSG + 3 μM cpd as strong as	
COc1ccc(C(=O)N[C@H]2CCc3ccccc32)cc1C [Example 121-1, (S)-N-(2,3-Dihydro-1H-inden-1-yl)-4-methoxy-3-methylbenzamide]	80		12 mM MSG + 1 μM cpd as strong as	1 μM cpd as strong as 12 mM MSG

Continued, in another order:

EC50 [1] [nM]	melting point [°C]	SMILES	Taste Data: concentration of cpd that with 12 mM MSG is as strong as 12 mM MSG + 100 μM IMP (human panelists)	Taste Data: concentration of cpd (alone) as strong as 12 mM MSG (human panelists)
90		COc1ccc(CNC(=O)C(=O)NCCc2ccccn2)c(OC)c1 [Example 123, N-(2,4-Dimethoxy-benzyl)-N′-(2-pyridin-2-yl-ethyl)-oxalamide]	12 mM MSG + 1 μM cpd as strong as	1 μM cpd as strong as 12 mM MSG
40	128 to 131	COc1cc(C)ccc1CNC(=O)C(=O)NCCc1ccccn1 [Example 132, N-(2-methoxy-4-methylbenzyl)-N′-(2-(pyridin-2-yl)ethyl)oxalamide]	12 mM MSG + 1 μM cpd as strong as	1 μM cpd as strong as 12 mM MSG
30	133.5 to 134	COc1cc(C)ccc1CNC(=O)C(=O)NCCc1ccc(C)cn1 [Example 157, N^1-(2-methoxy-4-methylbenzyl)-N^2-(2-(5-methylpyridin-2-yl)ethyl)oxalamide]	12 mM MSG + 0.3 μM cpd as strong	0.3 μM cpd as strong as 12 mM MSG
